Source: patent US10450327B2, “Epidithiodioxopiperazine compound or its derivatives, and the use thereof” (priority 2011, dated 2019)

How the values were obtained:
[1] = tested on: human aortic smooth muscle cells (HASMCs); assay: Cytotoxicity (cell viability), HASMCs; type: cell-based; details: compared with gliotoxin and A1 to A9
Experimental: (§1) Most ETP compounds have been known to be cytotoxic to animal cells. Accordingly, the inventors of the present invention determined a safe concentration range of the epidithiodioxopiperazine compound or its derivatives in vascular cells. For this, human aortic smooth muscle cells (HASMCs) and human aortic endothelial cells (HAECs) were pretreated for 2 hours with various concentrations of gliotoxin or chaetocin, and A1 to A9 that are ETP derivatives according to the present invention, and cultured in a fresh medium for 24 hours followed by cell viability assay (FIGS. 6 to 10).

[2] = tested on: human aortic endothelial cells (HAECs); assay: Cytotoxicity (cell viability), HAECs; type: cell-based; details: compared with gliotoxin and A1 to A9
Experimental: as §1

NADPH oxidase (NOX) = assay: NADPH oxidase activity assay (whole cell superoxide production); type: cell-based, human; details: HASMCs with PDGF-B and HAECs with VEGF-A; until concentrations increased up to 500 nM
Experimental: Whole cell superoxide production was measured using an enhanced luminescence system (Diogenes, National Diagnostics). For the assay, the serum-starved cells were pre-incubated with a 100 μl Diogene reagent at 37° C. for 5 minutes. After being stimulated by the indicated growth factor, chemiluminescence was detected every second for 10 minutes with a TD-20/20 Luminometer (Turner Biosystems).
When HASMCs and HAECs were stimulated with PDGF-B and VEGF-A, respectively, the NOX activity increased approximately twofold. […] Thus, it was seen that these ETP compounds function as hydrogen peroxide reductase capable of replacing PrxII in both vascular cells, but the mechanism was not the inhibition of hydrogen peroxide producer NOX.

SK-MEL28 melanoma cells = type: cell-based, human; details: at a concentration of 100 nM; tested 0, 100, 200, 500 and 1000 nM
Experimental: Specifically, after chaetocin and chetomin was treated with SK-MEL28 melanoma cells at different concentrations (0, 100, 200, 500 and 1000 nM), the cell viability was checked, and the result is shown in FIG. 54A.

Compound: CN1C(=O)[C@@]23C[C@]4([C@]56C[C@@]78SS[C@@](CO)(C(=O)N7[C@H]5Nc5ccccc56)N(C)C8=O)c5ccccc5N[C@@H]4N2C(=O)[C@]1(CO)SS3 [chaetocin]
- relative toxicity to HASMCs [1]: relatively less toxic
- relative toxicity to HAECs [2]: relatively less toxic
- NOX activity (NADPH oxidase (NOX)): did not inhibit
- toxicity (cell viability) (SK-MEL28 melanoma cells): toxicity was not shown
